The values below are quoted from earlier work in patent US20250121105A1, “METHODS FOR TREATING CANCER USING COMBINATIONS OF PARP INHIBITORS AND ANTIBODY RADIOCONJUGATES” (ACTINIUM PHARMACEUTICALS, INC., priority 2019, published 2025).

Data set [1] concerns glioblastoma cancer cells. Particulars: veliparib (ABT-888) plus ionizing radiation (IR).
Setting [2] is: order of magnitude only, stated in the background.

Each structure is given as a SMILES string. Where two headings read alike, the source gives them in different places.

Regarding `NC(=O)c1cccc2cn(-c3ccc([C@@H]4CCCNC4)cc3)nc12` [niraparib], the IC50 values entry with PARP (setting [2]) is reported as “nanomolar range”. For the molecule `CNCc1ccc(-c2[nH]c3cc(F)cc4c3c2CCNC4=O)cc1` [rucaparib], in the data set with PARP (setting [2]), the IC50 values result was “nanomolar range”. Turning to `Cn1ncnc1[C@H]1c2n[nH]c(=O)c3cc(F)cc(c23)N[C@@H]1c1ccc(F)cc1` [talazoparib], the IC50 values entry with PARP (setting [2]) is “picomolar range”. For `C[C@]1(c2nc3c(C(N)=O)cccc3[nH]2)CCCN1` [veliparib], in the data set on PARP, the IC50 values result was “nanomolar range”. Also, the “sensitivity of glioblastoma cancer cells to PARPi with ionizing radiation” value in data set [1] is listed as “IR sensitizes glioblastoma cancer cells to PARPi”.
